Where a SMILES comes first, the peptide text is derived from it.
Columns and labels:
[1] = system: S. aureus (Liberec) biofilm; experiment: Bacterial biofilm, remaining metabolic activity (MTT); type: cell-based, Staphylococcus aureus; conditions: remaining metabolic activity of biofilm, 20 h
Procedure: (§1) Inoculum of S. aureus (Liberec) or P. aeruginosa (Liberec) cultivated overnight in BHI medium was diluted with fresh BHI medium containing 1% glucose to a final concentration to be ca. 10^8 CFU/ml. Then this was pipetted (100 μl) to 96-multiwell polystyrene plate which was incubated at 37° C. under rotary shaking (300 RPM) for 24 h. Medium without bacteria in the wells was used as a negative control. Supernatant from each well was drained and the biofilm formed on the bottom and on the walls of the wells was cautiously washed three times by sterile physiological solution (300 μl). The peptides tested in the concentrations of 1-128 μmol.l^−1 were prepared by twofold serial dilution of their stock solution (1 mmol.l^−1) in fresh BHI medium and then pipetted (100 μl) to the wells with formed biofilms. The biofilms covered by BHI medium without peptide were used as a positive control. The plates were then incubated for 20 h as described above. After that the liquid was drained out and wells were washed twice with sterile physiological solution.
(§2) The metabolic activity of surviving bacterial cells in the biofilm was determined by staining with MTT (3-(4,5-dimethylthiazol-2-yl)-2,5-diphenyl-2H-tetrazolium bromide) as follows: The mixture of BHI medium (100 μl) and 10 μl of the stock solution of MTT (5 mg/ml in physiological solution) was added to each well and the plate was incubated 40 min at 37° C. The liquid was drained out and the insoluble formazan crystals formed by reduction inside the biofilm were dissolved with dimethyl sulphoxide (100 μl). The intensity of staining in each well was measured as absorbance at 540 nm on a Tecan Infinite M200 Pro reader (Tecan GmbH, Austria). Remaining activity of surviving cells inside the biofilm was expressed for each well in percentage according to the following equation:
(§3) [formula] where A is the absorbance of the tested compound, ABL is the absorbance of the negative control, and AC is the absorbance of control biofilm.

[2] = system: Candida albicans (Olomouc) biofilm; experiment: C. albicans biofilm, remaining metabolic activity (XTT); type: cell-based
Procedure: Candida albicans (Olomouc) was sub-cultured overnight in YPD medium (10 g yeast extract (DIFCO, USA), 20 g peptone (OXOID), 20 g glucose (Penta) dissolved in 1 L of distilled water) at constant shaking (100 RPM) at 37° C. Next day, the overnight culture was diluted 1:100 into fresh YPD medium and incubated at constant shaking (200 RPM) at 37° C. until the mid-exponential growth phase was reached. Then the cells were harvested and washed twice by centrifugation in physiological solution (5000 RPM; 5 min). Cells were suspended in sterile salt solution and their optical density was determined at 600 nm.
A final yeast suspension was prepared at a cell density of 1×10^6 CFU (corresponding to optical density of 0.17 at 600 nm) in RPMI 1640 medium with L-glutamine (BioSera), NaHCO3 (2 g/l; Penta) and 0.165 mol.l^−1 MOPS (Duchefa)—further as RPMI broth medium 1.
Biofilms were formed on commercially available sterile, polystyrene, flat-bottomed, 96-well microtiter plates (TPP, SW). Cell suspension (100 μl) was pipetted into selected wells of a microtiter plate and incubated without shaking for 2 hours at 37° C. Afterwards, the wells were washed twice with sterile PBS buffer (1.44 g Na2HPO4, 0.24 g KH2PO4, 0.2 g KCl and 8 g NaCl in 1 l distilled water, pH=7; Penta). Fresh RPMI broth medium 1 (100 μl) was added to each well and the plate was sealed with parafilm and incubated without shaking for 48 hours at 37° C.
Planktonic and non-adherent cells were removed by threefold washing of the biofilm with sterile PBS buffer (200 μl). A twofold serial dilution was used to reach required peptide concentration (in RPMI broth medium 1) in each well. Peptide concentrations range was between 0.39-200 μmol.l^−1. Plates were then sealed with parafilm and incubated for 20 hours at 37° C.
The metabolic activity of surviving Candida cells in the treated biofilm was determined by staining with XTT (2,3-Bis(2-methoxy-4-nitro-5-sulphophenyl)-2H-tetrazolium-5-carboxanilide). Stock solution of PMS (phenazine methosulfate; 7.5 g/l; SIGMA, Czech Republic) stored at −20° C. was diluted in PBS buffer 1:100. Diluted PMS was further mixed (2:25) with stock solution of XTT (0.5 g/l; Alchimica, Slovakia) dissolved in PBS/RPMI broth medium (1:1). Mixture (100 μl) of PMS and XTT was added into treated biofilm in the wells and incubated for 90 min at 37° C. Then the intensity of staining in each well was measured as absorbance at 540 nm on a Tecan Infinite M200 Pro reader (Tecan GmbH, Austria). Remaining metabolic activity of the cells in the biofilm was expressed for each well in percentage and calculated as follows:
[formula] where A is the absorbance of tested compound, ABL is the absorbance of negative control and AC is the absorbance of control untreated biofilm. The non-inoculated wells served as negative control. Inoculated wells not treated with compound served as positive control. Amphotericin B was used as control drug to ensure quality of Candida albicans. The values of remaining metabolic activity of treated biofilms are shown at Table 5.

[3] = system: P. aeruginosa (Liberec) biofilm; experiment: Bacterial biofilm, remaining metabolic activity (MTT); type: cell-based, Pseudomonas aeruginosa; conditions: remaining metabolic activity of biofilm, 20 h
Procedure: as §1, §2, §3

in vitro = conditions: human
Procedure: The peptides in the concentrations 2-200 μmol.l^−1 were incubated with the suspension of human red blood cells (5% v/v) for 1 h at 37° C. in a physiological solution at a final volume of 0.2 ml. The samples were then centrifuged for 5 min at 250 g, and the absorbance of the supernatant was determined at 540 nm. Supernatants of red blood cells suspended in physiological solution and in 0.2% (v/v) TRITON X100 in physiological solution served as controls for zero hemolysis (blank) and 100% hemolysis, respectively. Hemolytic activity is expressed as the peptide concentration required for lysis of 50% of human erythrocytes in the assay (LC50).

[4] = peptide concentration 8 μmol · l^−1
[5] = peptide concentration 16 μmol · l^−1
[6] = peptide concentration 32 μmol · l^−1
[7] = peptide concentration 64 μmol · l^−1
[8] = peptide concentration 128 μmol · l^−1
[9] = peptide concentration 6.25 μmol · l^−1, 20 hours
[10] = peptide concentration 12.5 μmol · l^−1, 20 hours
[11] = peptide concentration 25 μmol · l^−1, 20 hours
[12] = peptide concentration 50 μmol · l^−1, 20 hours
[13] = peptide concentration 100 μmol · l^−1, 20 hours
[14] = peptide concentration 200 μmol · l^−1, 20 hours

Compound	Metabolic activity (%) S. aureus (Liberec) [1, 4] [%]	Metabolic activity (%) S. aureus (Liberec) [1, 5] [%]	Metabolic activity (%) S. aureus (Liberec) [1, 6] [%]	Metabolic activity (%) S. aureus (Liberec) [1, 7] [%]	Metabolic activity (%) S. aureus (Liberec) [1, 8] [%]	Metabolic activity of C. albicans (%) [2, 9] [%]	Metabolic activity of C. albicans (%) [2, 10] [%]	Metabolic activity of C. albicans (%) [2, 11] [%]	Metabolic activity of C. albicans (%) [2, 12] [%]	Metabolic activity of C. albicans (%) [2, 13] [%]	Metabolic activity of C. albicans (%) [2, 14] [%]	Metabolic activity (%) P. aeruginosa (Liberec) [3, 4] [%]	Metabolic activity (%) P. aeruginosa (Liberec) [3, 5] [%]	Metabolic activity (%) P. aeruginosa (Liberec) [3, 6] [%]	Metabolic activity (%) P. aeruginosa (Liberec) [3, 7] [%]	Metabolic activity (%) P. aeruginosa (Liberec) [3, 8] [%]	CC50 at 1 h (in vitro) [µM]
CC[C@@H](C)[C@@H](NC(=O)CN)C(=O)N[C@H](CC(C)C)C(=O)N[C@H](CO)C(=O)N[C@H](CO)C(=O)N[C@H](CC(C)C)C(=O)N[C@H](Cc1c[nH]c2ccccc12)C(=O)N[C@H](CCCCN)C(=O)N[C@H](CCCCN)C(=O)N[C@H](CC(C)C)C(=O)N[C@H](CCCCN)C(=O)N[C@H](CCCCN)C(=O)N[C@@H](C(=O)N[C@@H](C(=O)N[C@H](C)C(=O)N[C@H](CCCCN)C(N)=O)[C@H](C)CC)[C@H](C)CC [XIII] (HELM PEPTIDE1{G.[dI].[dL].[dS].[dS].[dL].[dW].[dK].[dK].[dL].[dK].[dK].[dI].[dI].[dA].[dK].[am]}$$$$V2.0)	71.6	33.8	21.5	20.4	5.3	78.3	56.9	37.2	10.9	5.8	4.9	71.2	65.8	61.2	73.6	23.0	191
H-GILSSLLKKLKKIIAK-NH2 [III]	87.8	89.6	78.4	15.9	2.4	104.7	113.6	87.2	31.1	28.4	0.0	–	–	–	–	–	284
H-GILSSLWKKLKKIIAK-NH2 [XII]	52.2	31.5	18.9	14.7	1.0	86.8	80.3	94.8	63.6	6.2	3.2	77.3	69.3	66.9	44.4	57.9	197
CC[C@@H](C)[C@@H](NC(=O)CN)C(=O)N[C@H](CC(C)C)C(=O)N[C@H](CO)C(=O)N[C@H](CO)C(=O)N[C@H](CC(C)C)C(=O)N[C@H](CC(C)C)C(=O)N[C@H](CCCCN)C(=O)N[C@H](CCCCN)C(=O)N[C@H](CC(C)C)C(=O)N[C@H](CCCCN)C(=O)N[C@H](CCCCN)C(=O)N[C@@H](C(=O)N[C@@H](C(=O)N[C@H](C)C(=O)N[C@H](CCCCN)C(N)=O)[C@H](C)CC)[C@H](C)CC [IV] (HELM PEPTIDE1{G.[dI].[dL].[dS].[dS].[dL].[dL].[dK].[dK].[dL].[dK].[dK].[dI].[dI].[dA].[dK].[am]}$$$$V2.0)	65.5	34.2	7.1	3.0	0.0	106.9	37.2	6.0	2.3	2.1	0.5	56.5	69.5	56.0	59.6	21.7	333
H-GIMSSLMKKLKKIIAK-NH2 [I]	111.6	103.3	111.2	101.9	11.4	100.4	108.0	130.7	57.5	28.2	8.1	86.4	87.7	89.6	62.9	43.4	> 400
